This is an account of results in US8246966B2, “Trypanosome microsome system and uses thereof” (priority 2006, dated 2012).

The subject of experiment [1] is T. brucei microsomes (TbRM). Description: Post-translational import of VSG-11786 into TbRM with inhibitors (Example 4). The format is biochemical, Trypanosoma brucei. The method, then:
FIGS. 7A to 7C. […] VSG-11786 mRNA was translated in rabbit reticulocyte lysate in the absence or presence of T. brucei cytosol for 1 hour at 37° C., and then cycloheximide was added to stop protein synthesis. TbRM (1 equivalent) and MAL3-101 (10 μM), MAL3-51 (10 μM), or an equal volume of DMSO was added to the samples on ice, and the mixture was incubated at 37° C. for 1.5 hours for translocation of VSG-11786 into the microsomes. Reaction mixtures were treated with proteinase K (PK) for one hour on ice. Proteolysis was terminated with PMSF. Proteins were precipitated with ammonium sulfate, pelleted by centrifugation, resuspended in SDS-PAGE sample buffer, and resolved by Tris-Tricine SDS-PAGE. Gel images were obtained with a phosphorimager and analyzed with Quantity-One software. Reaction mixtures for odd numbered lanes contained TbRM, but not proteinase K; even numbered lanes contained TbRM and proteinase K. Brackets denote lanes that were compared to obtain percentage of VSG-11786 import values. FIG. 7B is a graphical representation of data from FIG. 7A. […] In FIG. 7C, the effect of MAL3-101 on T. brucei growth.
FIGS. 8A to 8D. Effects of NFI028 and CAM741 on import of VSG-11786 into T. brucei microsomes. […] VSG-11786 mRNA was translated in rabbit reticulocyte lysate in the presence of T. brucei cytosol for one hour at 37° C., and then protein synthesis was stopped by the addition of cycloheximide. […] Reaction mixtures were treated with proteinase K (PK) on ice for one hour. Proteolysis was terminated with PMSF. Proteins were precipitated with ammonium sulfate, pelleted, resuspended in SDS-PAGE sample buffer, and resolved by Tris-Tricine SDS-PAGE. Images of radiolabeled proteins were obtained with a phosphorimager and quantitated with Quantity-One software. Samples depicted in odd numbered lanes contained TbRM, but were not treated proteinase K. Reaction mixtures shown in even numbered lanes contained TbRM and were treated with proteinase K. Brackets denote lanes that were compared to each other in order to obtain percentage of VSG-11786 import values. FIG. 8B is a graphical representation of data from FIG. 8A.
FIGS. 9A to 9D. Effects of azide, AEE788, and valinomycin on VSG-11786 import into T. brucei microsomes. […] VSG-11786 mRNA was translated in rabbit reticulocyte lysate in the presence of T. brucei cytosol for one hour at 37° C. Cycloheximide was added to stop proteins synthesis. TbRM (1 equivalent) and sodium azide (8 μM), AEE788 (8 μM), an equal volume of microsome buffer (RMB) or DMSO was added to the samples on ice, and the mixtures were incubated at 37 C for 1.5 hours. Reaction mixtures were treated with proteinase K (PK) on ice for one hour. Proteolysis was terminated with PMSF. Proteins were precipitated with ammonium sulfate, pelleted, resuspended in SDS-PAGE sample buffer, and resolved by Tris-Tricine SDS-PAGE. Images of radiolabeled proteins were obtained with a phosphorimager and quantitated with Quantity-One software. Brackets show lanes that were compared to each other in order to obtain percentage of VSG-11786 imported into TbRM. Lanes 1, 3, 5, & 7 were treated with TbRM, but not proteinase K. Lanes 2, 4, 6, & 8 were treated with TbRM and proteinase K. FIG. 9B is a graphical representation of data from FIG. 9A. […] Reaction mixtures depicted in odd lanes contained TbRM, but were not treated with proteinase K; even lanes contained TbRM and were treated with proteinase K. FIG. 9D is a graphical representation of data from panel FIG. 9C.

The next experiment relates to bloodstream T. brucei. The conditions noted are these: del Rayo Camacho et al., 2002; read-out: IC50 of drug used to treat human African trypanosomiasis; cited from earlier work.
Experiment [2] has as its system Bloodstream T. brucei CA427. Description: Bloodstream T. brucei cell culture drug susceptibility (Example 4). The format is cell-based, Trypanosoma brucei. The conditions noted are these: cultured bloodstream T. brucei; read-out: IG50, T. brucei growth. The method, then: Cell Culture. Bloodstream T. brucei cell culture and drug susceptibility studies were performed as previously described. Bloodstream T. brucei CA427 were cultured in HMI-9 media (Hirumi and Hirumi, 1994, Parasitol Today; 10(2):80-4) to a density of 10^6 cells/ml. Cells were seeded (500 μl of 4×10^4 cells/ml) to a 24-well plate and exposed to MAL3-101, CAM741, and NFI028 at listed concentrations (see figure legends) or an equal volume of DMSO. Cells were incubated at 37° C. and counted after 24 and 48 hours, using a hemocytometer.

Turning to `CCN1CCN(Cc2ccc(-c3cc4c(N[C@H](C)c5ccccc5)ncnc4[nH]3)cc2)CC1` [AEE788], in experiment [1] (AEE788 8 μM), the “inhibition of post-translational import of VSG-11786 into TbRM” value is recorded as “failed to inhibit”.

Take `N=C(N)c1ccc(OCCCCCOc2ccc(C(=N)N)cc2)cc1` [pentamidine]: the IC50 with bloodstream T. brucei was 0.0003 µM.

For the compound `CC(C)[C@@H]1NC(=O)[C@H](C)OC(=O)[C@@H](C(C)C)NC(=O)[C@@H](C(C)C)OC(=O)[C@H](C(C)C)NC(=O)[C@H](C)OC(=O)[C@@H](C(C)C)NC(=O)[C@@H](C(C)C)OC(=O)[C@H](C(C)C)NC(=O)[C@H](C)OC(=O)[C@@H](C(C)C)NC(=O)[C@@H](C(C)C)OC1=O` [valinomycin], in experiment [1] (valinomycin 0.5 μM), the “efficiency of VSG-11786 import into TbRM” value is listed as “not affected”.

Take `Cc1ccc(C(=O)Nc2ccc(S(=O)(=O)O)c3cc(S(=O)(=O)O)cc(S(=O)(=O)O)c23)cc1NC(=O)c1cccc(NC(=O)Nc2cccc(C(=O)Nc3cc(C(=O)Nc4ccc(S(=O)(=O)O)c5cc(S(=O)(=O)O)cc(S(=O)(=O)O)c45)ccc3C)c2)c1` [suramin]: the IC50 in the experiment with bloodstream T. brucei was 1.4 to 2.3 µM.

Take CAM741: in experiment [1] (CAM741 1 μM, DMSO 74%), the “VSG-11786 import into TbRM” value worked out at 73%. In addition, the IC50 in experiment [2] worked out at 2 µM.
